# Test results: publication PMC12226733, “Evolution of iGluR ligand specificity, polyamine regulation, and ion selectivity inferred from a placozoan epsilon receptor” (Communications Biology, 2025)
# Where “and” joins values, the source holds several entries; their conditions need not be identical. Identical values can stand only once.
# Experiments:
# GluA2 Q607S = target: T1, GluA2 Q607S (Homo sapiens, UniProt P42262, Q607S); assay: outside-out patch clamp, block by intracellular spermine, HEK-293T/17 cells; type: biochemical; settings: GluA2 Q670S, single recordings and AVG;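 for Normalized conductance (Gnorm): normalized to each receptor's own maximal conductance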
# T1 construct: host or cells: HEK-293T/17
# T1 sequence (P42262 25-883 Q607S): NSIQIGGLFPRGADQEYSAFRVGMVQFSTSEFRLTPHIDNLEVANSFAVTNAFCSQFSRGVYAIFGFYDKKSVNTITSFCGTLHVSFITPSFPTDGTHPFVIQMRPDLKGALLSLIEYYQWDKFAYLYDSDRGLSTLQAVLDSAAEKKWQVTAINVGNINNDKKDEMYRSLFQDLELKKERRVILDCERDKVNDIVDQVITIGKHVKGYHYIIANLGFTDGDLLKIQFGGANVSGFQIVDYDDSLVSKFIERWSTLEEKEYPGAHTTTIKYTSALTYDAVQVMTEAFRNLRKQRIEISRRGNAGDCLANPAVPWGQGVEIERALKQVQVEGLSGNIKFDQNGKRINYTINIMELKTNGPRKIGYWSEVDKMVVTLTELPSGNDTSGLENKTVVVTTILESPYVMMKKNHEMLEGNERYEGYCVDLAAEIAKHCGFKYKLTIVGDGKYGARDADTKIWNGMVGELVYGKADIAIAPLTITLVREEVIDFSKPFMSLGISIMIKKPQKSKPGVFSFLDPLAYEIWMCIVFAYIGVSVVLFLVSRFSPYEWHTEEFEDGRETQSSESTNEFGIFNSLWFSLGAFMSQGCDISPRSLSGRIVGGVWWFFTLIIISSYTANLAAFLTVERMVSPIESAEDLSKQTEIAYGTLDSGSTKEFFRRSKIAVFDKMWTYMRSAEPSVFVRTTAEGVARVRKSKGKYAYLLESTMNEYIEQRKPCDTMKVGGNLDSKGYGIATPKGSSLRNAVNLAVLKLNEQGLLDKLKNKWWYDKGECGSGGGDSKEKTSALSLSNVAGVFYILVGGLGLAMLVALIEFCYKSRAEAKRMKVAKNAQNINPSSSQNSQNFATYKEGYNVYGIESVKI
# Procedure: (§1) Parallel experiments were carried out in human GluA2 homotetramers bearing equivalent Q/R/N and +4 site mutations to compare the regulation of voltage-dependent polyamine block within the broader context of mammalian receptors. Experimental design remained the same, except for using 10 mM glutamate as the agonist used to evoke membrane currents (Fig. 7a, d, g, and j). […] Their properties were accordingly compared to wildtype GluA2(Q) co-expressed with TARP-γ2.
# (§2) HEK-293T/17 cells (ATCC) were maintained in MEM supplemented with GlutaMAX and 10% fetal bovine serum (FBS) at 37 °C and 5% CO2. […] Transient transfections were carried out 48 h post-plating using the calcium phosphate precipitation method. After 6–8 hours, cells were washed twice with PBS and maintained in fresh medium. Cells transfected with mammalian GluA2 cDNA (plasmid vector described above) were returned to an incubator at 37 °C for 24–48 hours and cells transfected with Epsilon GluE1αA were incubated at 28 °C for 48–72 hours. In cells co-transfected with TARP-γ2, 30 μM NBQX was included in the medium to minimize AMPAR/auxiliary-induced cytotoxicity. All constructs were co-transfected with a plasmid encoding enhanced green fluorescent protein (eGFP) to identify transfected cells. Electrophysiology responses were recorded from outside-out patches excised from transfected cells. Recording pipettes were composed of borosilicate glass (3 to 6 megaohm, King Precision Glass) coated with dental wax to reduce electrical noise. All recordings were performed using Axopatch 200B amplifier (Molecular Devices, LLC). Current records were filtered at 5 or 10 kHz and sampled at 25–50 kHz. Series resistance (3 to 12 megaohms) was compensated by 95%. Recordings were performed at a range of holding potentials from −100 mV to 100 mV to study polyamine block. Data was acquired using pClamp9 software (Molecular Devices, LLC). All experiments were performed at room temperature. All chemicals were purchased from Sigma-Aldrich, unless otherwise indicated. External solution contained (in mM): 150 NaCl, 5 HEPES, 0.1 CaCl2, 0.1 MgCl, and […], pH 7.3–7.4. […] The osmotic pressure of all solutions was adjusted to 295 to 300 mOsm with sucrose. […] Stocks were thawed on the day of the experiment and used to prepared agonist-containing external solutions. Raw data for all electrophysiology experiments are provided in Supplementary Data 3. Current-voltage (I-V) relationships were fit using Origin 7 (OriginLab) using a ninth order polynomial function to estimate the reversal potential (Vrev).
# (§3) Agonist-evoked membrane conductance (G) was calculated using the following equation: G=I/(V−Vrev)
# (§4) Conductance-voltage (G-V) relationships were fit using Origin 7 (OriginLab) with the single permeant blocker model as done previously[46]: G=Gmax/1+[Spm]/Kd Where Gmax is the maximal conductance, [Spm] is the internal Spm concentration, and Kd is the dissociation constant.
# (§5) Kd is defined as: Kd=koff+kperm/kon=sumofexitrates/bindingrate
# (§6) And redefined as: Kd=g*exp(V/h)+L*exp(V/k) Where h and k are voltage dependencies of g and L, respectively, and at 0 mV: g=koff/konandL=kperm/kon
# GluA2 D611A + γ2 = target: T2, GluA2 D611A + γ2 (Homo sapiens, UniProt P42262, D611A); assay: as above; type: biochemical; settings: for Normalized conductance (Gnorm) AMPA D611A + γ2 / Normalized current (Inorm) AMPA D611A + γ2: single recordings and AVG
# T2 construct: expressed in transfected cells; host or cells: HEK-293T/17
# T2 sequence (P42262 25-883 D611A): as the sequence (P42262 25-883 Q607S) above, with S583Q, D587A counted along it
# T2 sequence (Q9Y698 whole entry partner): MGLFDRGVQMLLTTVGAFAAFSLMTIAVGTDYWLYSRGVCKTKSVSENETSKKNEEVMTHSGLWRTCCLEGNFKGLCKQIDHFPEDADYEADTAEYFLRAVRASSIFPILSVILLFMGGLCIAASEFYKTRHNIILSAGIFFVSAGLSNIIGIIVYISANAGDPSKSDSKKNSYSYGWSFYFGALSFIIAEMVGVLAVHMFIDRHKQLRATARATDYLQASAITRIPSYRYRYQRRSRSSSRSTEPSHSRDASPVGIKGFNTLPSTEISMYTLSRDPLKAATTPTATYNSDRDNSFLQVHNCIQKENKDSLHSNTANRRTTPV
# Procedure: as §1, §2, §3, §4, §5, §6
structure (smiles),measurement,setting,value
NCCCNCCCCNCCCN [spermine],Normalized current (Inorm),GluA2 Q607S; 100 mV,0.65 and 0.77 and 0.69
same,Normalized conductance (Gnorm),GluA2 Q607S; -10 mV,0.58 and 0.48 and 0.57 and 0.51 and 0.53
same,Normalized conductance (Gnorm),GluA2 Q607S; -20 mV,0.55 and 0.46 and 0.51 and 0.49 and 0.50
same,Normalized conductance (Gnorm),GluA2 Q607S; -30 mV,0.54 and 0.46 and 0.52 and 0.50
same,Normalized conductance (Gnorm),GluA2 Q607S; -40 mV,0.55 and 0.48 and 0.52 and 0.45 and 0.50
same,Normalized conductance (Gnorm),GluA2 Q607S; -50 mV,0.57 and 0.50 and 0.52 and 0.49
same,Normalized conductance (Gnorm),GluA2 Q607S; -60 mV,0.64 and 0.55 and 0.54 and 0.56 and 0.57
same,Normalized conductance (Gnorm),GluA2 Q607S; -70 mV,0.72 and 0.61 and 0.64
same,Normalized conductance (Gnorm),GluA2 Q607S; -80 mV,0.81 and 0.68 and 0.75 and 0.67 and 0.73
same,Normalized conductance (Gnorm),GluA2 Q607S; -90 mV,0.92 and 0.76 and 0.83 and 0.81
same,Normalized conductance (Gnorm),GluA2 Q607S; -100 mV,0.86 and 0.95 and 0.90
same,Normalized current (Inorm),GluA2 Q607S; -100 mV,-1.00
same,Normalized conductance (Gnorm) AMPA D611A + γ2,GluA2 D611A + γ2; 0 mV,0.81 and 0.75 and 0.86 and 0.99 and 0.85
same,Normalized conductance (Gnorm) AMPA D611A + γ2,GluA2 D611A + γ2; 10 mV,0.83 and 0.76 and 0.89 and 0.84
same,Normalized current (Inorm) AMPA D611A + γ2,GluA2 D611A + γ2; 10 mV,0.05 and 0.0569 and 0.06 and 0.0738
same,Normalized conductance (Gnorm) AMPA D611A + γ2,GluA2 D611A + γ2; 20 mV,0.86 and 0.79 and 0.92 and 0.87
same,Normalized current (Inorm) AMPA D611A + γ2,GluA2 D611A + γ2; 20 mV,0.15 and 0.14 and 0.17
same,Normalized conductance (Gnorm) AMPA D611A + γ2,GluA2 D611A + γ2; 30 mV,0.92 and 0.81 and 0.94 and 0.90
same,Normalized current (Inorm) AMPA D611A + γ2,GluA2 D611A + γ2; 30 mV,0.26 and 0.22 and 0.25 and 0.27
same,Normalized conductance (Gnorm) AMPA D611A + γ2,GluA2 D611A + γ2; 40 mV,0.93 and 0.87 and 0.95 and 0.91
same,Normalized current (Inorm) AMPA D611A + γ2,GluA2 D611A + γ2; 40 mV,0.36 and 0.33 and 0.32 and 0.37 and 0.35
same,Normalized conductance (Gnorm) AMPA D611A + γ2,GluA2 D611A + γ2; 50 mV,0.97 and 0.91 and 0.99 and 0.92 and 0.95
same,Normalized current (Inorm) AMPA D611A + γ2,GluA2 D611A + γ2; 50 mV,0.49 and 0.44 and 0.47 and 0.45 and 0.46
same,Normalized conductance (Gnorm) AMPA D611A + γ2,GluA2 D611A + γ2; 60 mV,0.94 and 0.96 and 0.99
same,Normalized current (Inorm) AMPA D611A + γ2,GluA2 D611A + γ2; 60 mV,0.57 and 0.55 and 0.56
same,Normalized conductance (Gnorm) AMPA D611A + γ2,GluA2 D611A + γ2; 70 mV,0.98 and 1.00 and 0.92 and 0.99 and 0.97
same,Normalized current (Inorm) AMPA D611A + γ2,GluA2 D611A + γ2; 70 mV,0.71 and 0.68 and 0.62 and 0.67
same,Normalized conductance (Gnorm) AMPA D611A + γ2,GluA2 D611A + γ2; 80 mV,0.99 and 0.97 and 1.04 and 1.00
same,Normalized current (Inorm) AMPA D611A + γ2,GluA2 D611A + γ2; 80 mV,0.82 and 0.76 and 0.81 and 0.78 and 0.79
same,Normalized conductance (Gnorm) AMPA D611A + γ2,GluA2 D611A + γ2; 90 mV,1.00 and 0.88 and 0.98 and 0.95
same,Normalized current (Inorm) AMPA D611A + γ2,GluA2 D611A + γ2; 90 mV,0.94 and 0.78 and 0.87 and 0.86
same,Normalized conductance (Gnorm) AMPA D611A + γ2,GluA2 D611A + γ2; 100 mV,0.97 and 0.96 and 1.00 and 0.98
same,Normalized current (Inorm) AMPA D611A + γ2,GluA2 D611A + γ2; 100 mV,1.02 and 0.95 and 0.99
same,Normalized conductance (Gnorm) AMPA D611A + γ2,GluA2 D611A + γ2; -10 mV,0.83 and 0.80 and 0.82 and 0.89
same,Normalized conductance (Gnorm) AMPA D611A + γ2,GluA2 D611A + γ2; -20 mV,0.81 and 0.87 and 0.82 and 0.91 and 0.85
same,Normalized conductance (Gnorm) AMPA D611A + γ2,GluA2 D611A + γ2; -30 mV,0.82 and 0.87 and 0.93 and 0.91 and 0.88
same,Normalized conductance (Gnorm) AMPA D611A + γ2,GluA2 D611A + γ2; -40 mV,0.83 and 0.87 and 0.84 and 0.92
same,Normalized conductance (Gnorm) AMPA D611A + γ2,GluA2 D611A + γ2; -50 mV,0.86 and 0.81 and 1.01 and 0.95 and 0.91
same,Normalized conductance (Gnorm) AMPA D611A + γ2,GluA2 D611A + γ2; -60 mV,0.89 and 0.96 and 0.95 and 0.94
same,Normalized conductance (Gnorm) AMPA D611A + γ2,GluA2 D611A + γ2; -70 mV,0.89 and 0.92 and 0.95 and 0.91
same,Normalized conductance (Gnorm) AMPA D611A + γ2,GluA2 D611A + γ2; -80 mV,0.89 and 0.86 and 0.96 and 0.90
same,Normalized conductance (Gnorm) AMPA D611A + γ2,GluA2 D611A + γ2; -90 mV,0.86 and 0.94 and 0.98 and 0.93
same,Normalized conductance (Gnorm) AMPA D611A + γ2,GluA2 D611A + γ2; -100 mV,0.96 and 0.95 and 0.98
same,Normalized current (Inorm) AMPA D611A + γ2,GluA2 D611A + γ2; -100 mV,-1.00
same,"h, voltage dependency of block onset",GluA2 D611A + γ2; GluA2 D611A + γ2,−58.8 ± 8.8 mV
same,"k, voltage dependency of block relief",GluA2 D611A + γ2; GluA2 D611A + γ2,20.8 ± 3.7 mV
same,Kd,"GluA2 D611A + γ2; GluA2 D611A + γ2, 30 µM internal Spm, 10 mM glutamate, read-out: Kd(0mV)",169 ± 54.6 µM
